Three molecules from paper PMC11618052, “Design, synthesis, and antiproliferative activity of new 1,2,3-triazole/quinazoline-4-one hybrids as dual EGFR/BRAF^V600E inhibitors” (RSC Advances, 2024) can be followed below.

“And” between values parts separate entries of the source, which are not always exact repeats. Identical values can stand only once.

One experiment has as its system Caspase-3. Description: Caspase-3 activation assay in MCF-7. In kind it is cell-based, human. To be noted: for Caspase-3 Fold change: MCF-7, versus untreated control; for Caspase-3 Conc.: MCF-7 cancer cell line. As to the method: Compounds 8g and 8h were evaluated as caspase-3, 8 and Bax activators and as down-regulator of the anti-apoptotic protein Bcl2 against the MCF-7 breast cancer cell line.[40] Appendix A ^† contains more details.
Compounds 8g and 8h were evaluated as caspase-3 activators against the MCF-7 breast cancer cell line,[40] with results presented in Table 3. […] The compounds 8g and 8h increased the concentration of caspase-3 protein in the MCF-7 cancer cell line, showing levels that were 11 and 10 times higher than the untreated control and higher than staurosporine. […]
cancer cells, commercially available ELISA kits (Invitrogen) were used according to manufacturer’s instructions.
4.2.1.5. Caspase-3 activation assay
Allow all reagents to reach room temperature before use. Gently mix all liquid reagents prior to use. Determine the number of 8-well strips needed for the assay. Insert these in the frame(s) for current use. Add 100 μl of the Standard Diluent Buffer to the zero standard wells. Well(s) reserved for chromogen blank should be left empty. Add 100 μl of standards and controls or diluted samples to the appropriate microtiter wells. The sample dilution chosen should be optimized for each experimental system. Tap gently on side of plate to mix. Cover wells with plate cover and incubate for 2 hours at room temperature. Thoroughly aspirate or decant solution from wells and discard the liquid, Wash wells 4 times. Pipette 100 μl of Caspase-3 (Active) Detection Antibody solution into each well except the chromogen blank(s). Tap gently on the side of the plate to mix. Cover plate with plate cover and incubate for 1 hour at room temperature. Thoroughly aspirate or decant solution from wells and discard the liquid, Wash wells 4 times. Add 100 μl Anti-Rabbit IgG HRP Working Solution to each well except the chromogen blank(s). Prepare the working dilution as described in Preparing IgG HRP. Cover wells with the plate cover and incubate for 30 minutes at room temperature. Thoroughly aspirate or decant solution from wells and discard the liquid. Wash wells 4 times. Add 100 μl of Stabilized Chromogen to each well. The liquid in the wells will begin to turn blue. Incubate for 30 minutes at room temperature and in the dark. The incubation time for chromogen substrate is often determined by the microtiter plate reader used. Many plate readers have the capacity to record a maximum optical density (O.D.) of 2.0. The O.D. values should be monitored, and the substrate reaction stopped before the O.D. of the positive wells exceeds the limits of the instrument. The O.D. values at 450 nm can only be read after the Stop Solution has been added to each well. If using a reader that records only to 2.0 O.D., stopping the assay after […]
Add 100 μl of Stop Solution to each well. Tap side of plate gently to mix. The solution in the wells should change from blue to yellow. Read the absorbance of each well at 450 nm having blanked the plate reader against a chromogen blank composed of 100 μl each of Stabilized Chromogen and Stop Solution. Read the plate within 2 hours after adding the Stop Solution. Use a curve fitting software to generate the standard curve. A four-parameter algorithm provides the best standard curve fit. Read the concentrations for unknown samples and controls from the standard curve. Multiply value(s) obtained for sample(s) by the appropriate dilution factor to correct for the dilution in step 3. Samples producing signals greater than that of the highest standard should be diluted in Standard Diluent Buffer and reanalyzed. […]
Tubulin.). The absorbance of each microwell was read on a spectro-photometer at 450 nm. A standard curve is prepared from 7human Caspase-8 standard dilutions and human Caspase-8 concentration determined.
4.2.1.7. Bax activation assay

A further experiment has as its system Bax. Description: Bax level assay in MCF-7. To be noted: for Bax Fold change: MCF-7, versus untreated control; for Bax Conc.: MCF-7 cancer cell line. In kind it is cell-based, human. As for the experimental part:
Compounds 8g and 8h were evaluated as caspase-3, 8 and Bax activators and as down-regulator of the anti-apoptotic protein Bcl2 against the MCF-7 breast cancer cell line.[40] Appendix A ^† contains more details. […]
Bring all reagents, except the human Bax-α Standard, to room temperature for at least 30 minutes prior to opening. The human Bax-α Standard solution should not be left at room temperature for more than 10 minutes. All standards, controls and samples should be run in duplicate. Refer to the Assay Layout Sheet to determine the number of wells to be used and put any remaining wells with the desiccant back into the pouch and seal the ziploc. Store unused wells at 4 °C. Pipet 100 μL of Assay Buffer into the S0 (0 pg/mL standard) wells. Pipet 100 μL of Standards #1 through #6 into the appropriate wells. Pipet 100 μL of the Samples into the appropriate wells. Tap the plate gently to mix the contents. Seal the plate and incubate at room temperature on a plate shaker for 1 hour at ~500 rpm. Empty the contents of the wells and wash by adding 400 μL of wash solution to every well. Repeat the wash 4 more times for a total of 5 washes. After the final wash, empty or aspirate the wells and firmly tap the plate on a lint free paper towel to remove any remaining wash buffer.
Pipet 100 μL of yellow Antibody into each well, except the Blank. Seal the plate and incubate at room temperature on a plate shaker for 1 hour at ~500 rpm. Empty the contents of the wells and wash by adding 400 μL of wash solution to every well. Repeat the wash 4 more times for a total of 5 washes. After the final wash, empty or aspirate the wells and firmly tap the plate on a lint free paper towel to remove any remaining wash buffer. Add 100 μL of blue Conjugate to each well, except the Blank. Seal the plate and incubate at room temperature on a plate shaker for 30 minutes […]
Pipet 100 μL of Substrate Solution into each well. Incubate for 30 minutes at room temperature on a plate shaker at ~500 rpm. Pipet 100 μL Stop Solution to each well. Blank the plate reader against the Blank wells, read the optical density at 450 nm. Calculate the average net Optical Density (OD) bound for each standard and sample by subtracting the average Blank OD from the average OD for each standard and sample. Using linear graph paper, plot the Average Net OD for each standard versus Bax concentration in each standard. Approximate a straight line through the points.
The concentration of Bax in the unknowns can be determined by interpolation. […]
Remove plate cover and empty the wells. […]
Incubate the microwell strips at room temperature (18° to 25°C) for about 15 minutes, if available on a rotator set at 100 rpm.

In the case of `CN[C@@H]1C[C@H]2O[C@@](C)([C@@H]1OC)n1c3ccccc3c3c4c(c5c6ccccc6n2c5c31)C(=O)NC4` [Staurosporine, reference compound], in the experiment with Caspase-3, the “Caspase-3 Fold change” value amounted to 8 and the “Caspase-3 Conc.” value came to 503 ± 4 pg/mL. Further, in the experiment on Bax, the “Bax Fold change” value is 35 and the “Bax Conc.” value was 280 ± 7 pg/mL. Moreover, the “Bax Conc.” value with Bax (listed as staurosporine) turned out to be 280 pg/mL.

Turning to `COc1ccc(-n2cc(CSc3nc4ccccc4c(=O)n3-c3ccc(C)cc3)nn2)cc1` [Compound 8g, 2-(((1-(4-Methoxyphenyl)-1H-1,2,3-triazol-4-yl)methyl)thio)-3-(p-tolyl)quinazolin-4(3H)-one], in the experiment with Caspase-3, the “Caspase-3 Fold change” value amounted to 11 and the “Caspase-3 Conc.” value is 695 ± 5 pg/mL. In the experiment with Bax, the “Bax Fold change” value was determined as 39; the “Bax Conc.” value was 315 pg/mL and 315 ± 9 pg/mL.

Take `Cc1ccc(-n2cc(CSc3nc4ccccc4c(=O)n3-c3ccc(C)cc3)nn2)cc1` [Compound 8h, 2-(((1-(p-Tolyl)-1H-1,2,3-triazol-4-yl)methyl)thio)-3-(p-tolyl)quinazolin-4(3H)-one]: in the experiment with Caspase-3, the “Caspase-3 Fold change” value is reported as 10 and the “Caspase-3 Conc.” value came out at 650 ± 5 pg/mL. Besides, in the experiment with Bax, the “Bax Fold change” value was determined as 37; the “Bax Conc.” value is 295 pg/mL and 295 ± 9 pg/mL.
